One assay addresses T1, PA1217 (Pseudomonas aeruginosa, UniProt Q9I4C1).
T1 construct: full-length, GST-tagged (pGEX-6P-1), expressed in E. coli BL21(DE3), GSTrap purified; tag removal not mentioned
T1 sequence (Q9I4C1 1-455): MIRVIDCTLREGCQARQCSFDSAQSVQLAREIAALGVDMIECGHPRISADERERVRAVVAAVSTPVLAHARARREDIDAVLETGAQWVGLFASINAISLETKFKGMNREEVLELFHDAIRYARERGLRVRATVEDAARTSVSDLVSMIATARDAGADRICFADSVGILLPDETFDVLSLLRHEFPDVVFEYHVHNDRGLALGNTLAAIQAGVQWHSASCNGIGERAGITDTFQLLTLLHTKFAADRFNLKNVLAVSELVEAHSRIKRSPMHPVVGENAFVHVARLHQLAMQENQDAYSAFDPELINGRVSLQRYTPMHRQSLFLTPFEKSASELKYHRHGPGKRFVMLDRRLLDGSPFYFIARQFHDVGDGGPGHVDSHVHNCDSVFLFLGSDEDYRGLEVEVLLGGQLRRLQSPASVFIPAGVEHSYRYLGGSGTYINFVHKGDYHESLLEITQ
The assay can be described thus: DTNB end-point assay of CoA release; 1H-NMR. The format is biochemical. The note with it: 1 mM acetyl-CoA, 2 mM 3-methyl-2-oxobutanoic acid, MgCl2, pH 7.5, 37 °C.

The target of the next assay is T2, Qst (Pseudomonas phage LUZ19, UniProt A9J759).
T2 construct: gene gp4; His-tagged (pEXP5-CT/TOPO), expressed in E. coli BL21(DE3), HisTrap purified; predicted 13 kDa
T2 sequence (A9J759 1-122): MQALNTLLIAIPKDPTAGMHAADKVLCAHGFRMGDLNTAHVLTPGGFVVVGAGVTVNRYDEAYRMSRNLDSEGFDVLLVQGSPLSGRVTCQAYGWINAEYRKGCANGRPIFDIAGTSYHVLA
The assay can be described thus: DTNB end-point assay of CoA release; 1H-NMR. The conditions noted are these: 1 mM acetyl-CoA, 2 mM 3-methyl-2-oxobutanoic acid, MgCl2, pH 7.5, 37 °C. The format is biochemical.

On to `CC(=O)SCCNC(=O)CCNC(=O)[C@H](O)C(C)(C)COP(=O)(O)OP(=O)(O)OC[C@H]1O[C@@H](n2cnc3c(N)ncnc32)[C@H](O)[C@@H]1OP(=O)(O)O` [acetyl-CoA], for which the “DTNB end-point assay of CoA release; 1H-NMR” value is reported as “products were only formed by LeuA, while PA1217 merely consumed acetyl-CoA” on PA1217 and “Qst was also able to consume acetyl-CoA” at Qst.

(Values after paper doi:10.1101/577908v1, “Host metabolic reprogramming of Pseudomonas aeruginosa by phage-based quorum sensing modulation” (biorxiv, 2019).)
